Results from publication PMC8876511, “Two out of Three Musketeers Fight against Cancer: Synthesis, Physicochemical, and Biological Properties of Phosphino Cu^I, Ru^II, Ir^III Complexes” (Pharmaceuticals, 2022).

Tests used:
Du-145 cells = assay: MTT cytotoxicity assay, Du-145; assay type: cell-based, human
Method: (§1) Moreover, to investigate the activity of synthesized complexes as potential anticancer agents, their cytotoxicity toward a series of human cancer cell lines and a non-cancer cell line (HaCaT) was evaluated using the MTT assay. […] In addition, we also determined the cytotoxic activity of free ligands toward selected cancer cells. […] However, this effect depends on the cell line. […] The best values of cytotoxic activity of compounds have been obtained after 72 h of cell incubation. Additionally, synthesized complexes had high sensitivity to A549 cells, so this cell line was selected as the research subject for antitumor activity.
(§2) MCF7 cell line (human breast adenocarcinoma, morphology: epithelial-like, ATCC: HTB-22) and A549 cell line (human lung adenocarcinoma, morphology: epithelial, ATCC: CCL-185); HaCaT (human keratinocyte) were cultured in Dulbecco’s Modified Eagle’s Medium (DMEM, Corning, Poland) with phenol red, supplemented with 10% fetal bovine serum (FBS) and with 1% streptomycin/penicillin. Du-145 cell line (human prostate carcinoma); derived from metastatic site: brain was cultured in minimum essential medium (MEM, Corning) with only 10% fetal bovine serum (FBS). Cultures were incubated at 37 °C under a humidified atmosphere containing 5% CO2. Cells were passaged using a solution containing 0.05% trypsin and 0.5 mM EDTA. All media and other ingredients were purchased from ALAB, Poland.
Since most of the studied compounds are insoluble in aqueous media (Dulbecco’s Modified Eagle’s Medium or minimum essential medium (MEM, Corning), therefore, they needed to be pre-dissolved in DMSO for biological tests. DMSO concentration was kept below 1% in each tested concentration of each compound. […] In brief, 5×10^3 per well (0.2 mL) in the two first approaches, while 1×10^4 cells in the case of longer incubation time were seeded in 96-well flat-bottom microtiter plate, were incubated with the tested complexes at various ranges of concentrations. […] Various compound concentrations (dilutions in proper medium supplemented with 1% FBS) were tested in five replicates and repeated at least three times. Determined values of IC50 (concentration of a drug required to inhibit the growth of 50% of the cells) are given as mean + S.D. (Standard Deviation). IC50 values were determined, from the plots of cell viability in the presence of various concentrations of each compound by matching dose–response curves and using the Origin 9.0 software. Furthermore, post-treatment survival assessment of the treated cells was analyzed under an inverted fluorescence microscope (Olympus IC51, Japan) with an excitation filter 470/20 nm. For this, cells were stained with two versatile fluorescence dyes: fluorescein diacetate (FDA, 5 mg/mL) and propidium iodide (PI, 5 mg/mL) in standard conditions in the dark for 20 min. Before visualization, dyes were removed and cells were washed with PBS twice.

A549 cells [1] = assay: MTT cytotoxicity assay, A549; assay type: cell-based, human
Method: as §1, §2
(§3) Since most of the studied compounds are insoluble in aqueous media (Dulbecco’s Modified Eagle’s Medium or minimum essential medium (MEM, Corning), therefore, they needed to be pre-dissolved in DMSO for biological tests. DMSO concentration was kept below 1% in each tested concentration of each compound. Cytotoxicity was assessed by MTT assay performed according to the protocols described previously in the following experimental approaches: 6 h + 24 h, 24 h + 24 h, and 72 h + 24 h. In brief, 5×10^3 per well (0.2 mL) in the two first approaches, while 1×10^4 cells in the case of longer incubation time were seeded in 96-well flat-bottom microtiter plate, were incubated with the tested complexes at various ranges of concentrations. After an appropriate incubation time of 6, 24, or 72 h, the cells were washed thee time with PBS and fresh medium was applied for a further 24 h in each approach. Various compound concentrations (dilutions in proper medium supplemented with 1% FBS) were tested in five replicates and repeated at least three times. Determined values of IC50 (concentration of a drug required to inhibit the growth of 50% of the cells) are given as mean + S.D. (Standard Deviation). IC50 values were determined, from the plots of cell viability in the presence of various concentrations of each compound by matching dose–response curves and using the Origin 9.0 software. Furthermore, post-treatment survival assessment of the treated cells was analyzed under an inverted fluorescence microscope (Olympus IC51, Japan) with an excitation filter 470/20 nm. For this, cells were stained with two versatile fluorescence dyes: fluorescein diacetate (FDA, 5 mg/mL) and propidium iodide (PI, 5 mg/mL) in standard conditions in the dark for 20 min. Before visualization, dyes were removed and cells were washed with PBS twice.

HaCaT cells [2] = assay: MTT cytotoxicity assay, HaCaT (non-cancer); assay type: cell-based, human
Method: as §1, §2, §3

A549 cells [3] = assay: Cell cycle analysis by PI staining, flow cytometry; assay type: cell-based, human; conditions: synchronized A549, various concentrations, 24 h
Method: Antitumor drugs induce cell cycle arrest by inhibiting DNA synthesis and enhancing DNA damage, ultimately leading cancer cells to apoptosis. We further studied the influence of Ir(III) and Ru(II) complexes on cell cycle distribution. Synchronized A549 cells were treated with Ir(III) (1a, 2a) or Ru(II) (1b, 2b) at various concentrations for 24 h. Cells were stained with propidium iodide (PI) and analyzed by flow cytometry. […] An arrest in S-phase implies that the cell cannot duplicate its DNA. Other authors recently reported a similar effect for iridium(III)polypyridyl complexes. Moreover, the percentage of the G2/M population also increases. However, higher doses (>10 μM) of Ir(III) complexes can enhance G0/G1-phase arrest.
The serum starvation protocol was used to synchronize cell cultures. A549 cells were seeded in a 12-well plate in a growth medium with 20% FBS overnight. Then, the cultures were washed by PBS and changed to a serum-free medium. After serum starvation for 24 h, cells were released into the cell cycle by the addition of serum and tested compounds solution for 24 h. The cells were then detached from the plate using trypsin. […] Cells were analyzed with the Guava® easyCyte™ flow cytometer equipped with a 488 nm laser. The obtained data were analyzed using InCyte Software (MerckMillipore, Burlington, MA, USA).

Solubility (qualitative) = assay type: physicochemical; conditions: H2O:DMSO (100:1)
A549 cells [4] = assay: MTT cytotoxicity assay, A549; assay type: cell-based, human; conditions: 48 h
PANC-1 cells = assay: MTT cytotoxicity assay, PANC-1; assay type: cell-based, human; conditions: 48 h
HaCaT cells [5] = assay: MTT cytotoxicity assay, HaCaT (non-cancer); assay type: cell-based, human; conditions: 48 h

| Compound | IC50 (Du-145 cells; 24 h) | IC50 (Du-145 cells; 48 h) | IC50 (Du-145 cells; 72 h) | IC50 (A549 cells [1]; 24 h) | IC50 (A549 cells [1]; 72 h) | IC50 (HaCaT cells [2]; 24 h) | IC50 (HaCaT cells [2]; 72 h) | cell cycle perturbations (A549 cells [3]) | solubility in mixture of H2O:DMSO (100:1) (Solubility (qualitative)) | IC50 (A549 cells [4]) | IC50 (PANC-1 cells) | IC50 (HaCaT cells [5]) |
| --- | --- | --- | --- | --- | --- | --- | --- | --- | --- | --- | --- | --- |
| CCN(CC)C[P+](c1ccccc1)(c1ccccc1)[Ir-3]([Cl])([Cl])[C]1(C)C(C)=C(C)C(C)=C1C [1a, Ir(η^5-Cp*)Cl2Ph2PCH2N(CH2CH3)2] | 90 ± 5 µM | 85 ± 9 µM | 19 ± 3 µM | 68 ± 5 µM | 12 ± 3 µM | 456 ± 11 µM | 320 ± 19 µM | concentration-dependent cell cycle perturbations | well soluble | 45 ± 4 µM | 204 ± 29 µM | 446 ± 26 µM |
| Ru(η^6-p-cymene)Cl2Ph2PCH2N(CH2CH3)2 [1b] | 122 ± 11 µM | 126 ± 12 µM | 23 ± 2 µM | 59 ± 3 µM | 10 ± 1 µM | 446 ± 20 µM | 303 ± 20 µM | concentration-dependent cell cycle perturbations | well soluble | 425 ± 38 µM | 305 ± 13 µM | 545 ± 33 µM |
